Laboratory results reported in patent publication US9682031B2, “Microcapsules comprising benzoyl peroxide and topical compositions comprising them” (Tagra Biotechnologies Ltd., priority 2009, dated 2017).

Columns and labels:
Type in all cases: physicochemical
[1] = Chemical stability of BPO in gel containing 1% free retinol, 40° C., 30 days (HPLC); conditions: encapsulated = sample 21; gel with 1% free retinol, 5% BPO, 30 days storage at 40° C.
Experimental: HPLC was used for BPO analysis following storage at 40° C. (encapsulated BPO vs. free BPO in a gel formulation containing 1% free retinol).

[2] = Chemical stability of BPO in aqueous gel formulation, 40° C., 90 days (HPLC); conditions: 5% BPO, 90 days at 40° C. (FIG. 21)
Experimental: Geogard (0.7 g, Lonza) was dissolved in water by heating to 40-50° C. and the solution was allowed to cool to room temperature. Clindamycin phosphate was optionally dissolved in the solution (in formulations comprising antibiotics). Xanthan gum (1 g, Interaxion) was slowly added under medium mixing until the xanthan gum gel was formed. BPO microcapsules were then added to the gel by simple mixing. The composition of the gel formulation is detailed in Table 8 below.
BPO microcapsules were incorporated into the gel formulation (gel base comprising no clindamycin) at final BPO concentration of 5% and incubated at 40° C. over 90 days. Stability studies were performed for compositions comprising only encapsulated BPO or encapsulated BPO in combination with 0.75-1% of Clindamycin Phosphate. BPO concentration was determined immediately after incorporation into gel formulation and after 30, 60 and 90 days. Total concentration of BPO was determined by mixing 1 gr of the gel formulation with dichloromethane/methanollacetonitrile solution. BPO concentration in water phase was determined after separation of microcapsules from gel by centrifugation. The water phase was mixed with dichloromethane/methanol/acetonitrile solution in order to extract BPO and its content was determined using HPLC.

[3] = Congo red oxidation sensitivity / qualitative diffusion test; conditions: microcapsules = sample 2 (PMMA-BPO); 4% (w/w) BPO free or encapsulated, BPO/congo red 30:1, 50-55° C.
Experimental: Azo-dye congo red was used as a model for oxidation-sensitive component, the ratio BPO/congo red=30:1(w/w).
Three comparative systems were utilized: • 1—BPO microcapsules (sample 2) • 2—free BPO • 3—without BPO (blank)
For the preparation of (1) and (2), 9 g (ml) aqueous dispersion containing 4% (w/w) BPO (free or encapsulated) were suspended with 0.1% Tween™ 20 (polysorbate 20) and 9 g liquid vehicle and stirred in a 25 ml beaker with a magnetic stirrer. Following a mixing period of 30 minutes, the temperature of the system was raised to 50-55° C. and 1 ml of a 1% aqueous solution of congo red were added. The blank system (3) was prepared by stirring 9 ml 0.1% Tween™ 20 and 9 g liquid vehicle, and adding 1 ml of a 1% aqueous solution of congo red. After stirring the suspension for 1 minute, pictures of the three systems were taken.

relative content of BPO from the initial concentration [1]: 36% | decrease in the concentration of BPO [2]: negligible decrease | color of congo red solution [3]: changed its color from red to yellow
SMILES: O=C(OOC(=O)c1ccccc1)c1ccccc1 [free BPO, benzoyl peroxide]
